Laboratory results from patent US20190100519A1, “HYDROCHLORIDE SALT CRYSTAL OF DRUG FOR TREATING OR PREVENTING JAK-ASSOCIATED DISEASE AND PREPARATION METHOD THEREOF” (CRYSTAL PHARMATECH CO., LTD., priority 2016, published 2019).
Converted amounts (≈) assume the structure as drawn. Where two headings read alike, the source gives them in different places.

How the values were obtained:
[1] = clinical trials; cited from earlier work
[2] = Stability assessment of Form A (storage, XRPD); type: physicochemical; conditions: two weeks
Procedure: 5 samples (10.0 mg each) of Form A obtained from example 2 was stored at 5° C., 25° C./60% RH, 40° C./75% RH, 60° C./75% RH and 80° C. for two weeks, then XRPD test was performed after one week and two weeks. The results are depicted in FIG. 6 and FIG. 7. FIG. 6 is the XRPD overlay of one-week stability, and the patterns from top to bottom are initial Form A, and Form A after storing at 25° C./60% RH, 40° C./75% RH, 60° C./75% RH, 80° C. for one week, respectively. FIG. 7 is the XRPD overlay of two-week stability, and the patterns from top to bottom are initial Form A, and Form A after storing at 25° C./60% RH, 40° C./75% RH, 60° C./75% RH and 80° C. for two weeks, respectively.

[3] = Solubility assessment (saturated solutions, HPLC); type: physicochemical; conditions: for solubility at 1 h / solubility at 4 h: thermodynamic from solid
Procedure: The concentration of the saturated solutions was measured through HPLC after 1 hour and 4 hours.

[4] = Particle size comparison experiment (laser particle size analyzer); type: physicochemical; conditions: wet method, Isopar G
Procedure: Wet method was used and Isopar G was used as the dispersion medium. [table] The particle size distributions of obtained Form A (example 2), Form B (example 4), Form C (example 5), Form D (example 8) and the reference form were measured.

[5] = Slurry experiment in different water activities (XRPD); type: physicochemical
Procedure: The samples were centrifuged after 48 hours, and tested by XRPD.

[6] = simulated gastric fluid, Solubility SGF

Structure (SMILES)	Solubility Water ([3]; 1 h) [µg/mL]	D10 [4] [μm]	D50 [4] [μm]	D90 [4] [μm]	MV (average particle size calculated by volume) [4] [μm]	Solubility SGF ([3]; 1 h) [µg/mL]	Solubility SGF ([3]; 4 h) [µg/mL]	Solubility Water ([3]; 4 h) [µg/mL]	solubility compared with reference form [3]	further results
O=C(Nc1nc2cccc(-c3ccc(CN4CCS(=O)(=O)CC4)cc3)n2n1)C1CC1 [Filgotinib, N-[5-[4-[(1,1-dioxo-1-thiomorpholin-4-yl)methyl]phenyl][1,2,4]triazole[1,5-a]pyridin-2-yl] cyclopropanecarboxamide]										anemia and abnormal increase in LDL [1]: does not cause an anemia and abnormal increase in LDL
Cl.O=C(Nc1nc2cccc(-c3ccc(CN4CCS(=O)(=O)CC4)cc3)n2n1)C1CC1 [Form A]	1080	1.72	8.93	62.08	24.64				higher solubility than the reference form	form change (XRPD) after storage ([2]; 5° C.): no form change; form change (XRPD) after storage ([2]; 25° C./60% RH): no form change; form change (XRPD) after storage ([2]; 40° C./75% RH): no form change; form change (XRPD) after storage ([2]; 60° C./75% RH): no form change; form change (XRPD) after storage ([2]; 80° C.): no form change; solubility at 1 h [3, 6]: 1280 µg/mL; solubility at 4 h [3, 6]: 1200 µg/mL; solubility at 4 h ([3]; water, Solubility Water): 2430 µg/mL
Cl.O=C(Nc1nc2cccc(-c3ccc(CN4CCS(=O)(=O)CC4)cc3)n2n1)C1CC1 [Form B]	5020	2.53	20.30	110.4	44.66	1450	960	3590	higher solubility than the reference form	

Continued, in another order:

Solubility Water ([3]; 1 h) [µg/mL]	D10 [4] [μm]	D50 [4] [μm]	D90 [4] [μm]	MV (average particle size calculated by volume) [4] [μm]	Solubility SGF ([3]; 1 h) [µg/mL]	Solubility SGF ([3]; 4 h) [µg/mL]	Solubility Water ([3]; 4 h) [µg/mL]	Structure (SMILES)	solubility compared with reference form [3]	further results
5180	1.87	13.57	66.16	29.92	1930	1120	3060	Cl.O=C(Nc1nc2cccc(-c3ccc(CN4CCS(=O)(=O)CC4)cc3)n2n1)C1CC1 [Form C]	higher solubility than the reference form	
3000	5.77	25.92	82.42	41.24	2220	1150	2370	Cl.O=C(Nc1nc2cccc(-c3ccc(CN4CCS(=O)(=O)CC4)cc3)n2n1)C1CC1 [Form D]	higher solubility than the reference form	
	2.95	6.29	12.35	7.24				O=C(Nc1nc2cccc(-c3ccc(CN4CCS(=O)(=O)CC4)cc3)n2n1)C1CC1 [Reference form, reference compound]		Final Form ([5]; H2O/ACN 1:99, water activity 0.2, slurry 48 hours): Form A; Final Form ([5]; H2O/ACN 2:98, water activity 0.4, slurry 48 hours): Form A; Final Form ([5]; H2O/EtOH 2:98, water activity 0.15, slurry 48 hours): Form A; Final Form ([5]; H2O/MeOH 7:93, water activity 0.2, slurry 48 hours): Form A; Final Form ([5]; H2O/MeOH 16:84, water activity 0.4, slurry 48 hours): Form A; stability under low water activity ([5]; low water activity): not stable; solubility at 1 h ([3]; simulated gastric fluid (SGF), simulated gastric fluid, simulated gastric fluid (SGF), 1 h, read-out: Solubility SGF): 70 µg/mL (≈ 165 µM); solubility at 4 h ([3]; simulated gastric fluid (SGF), simulated gastric fluid, simulated gastric fluid (SGF), 4 h, read-out: Solubility SGF): 920 µg/mL (≈ 2160 µM); solubility at 1 h ([3]; water, water, 1 h, read-out: Solubility Water): 810 µg/mL (≈ 1900 µM); solubility at 4 h ([3]; water, water, 4 h, read-out: Solubility Water): 3000 µg/mL (≈ 7050 µM)
